Assay results reported in patent US20080146556A1, “Method of radio-sensitizing tumors using a radio-sensitizing agent” (Cephalon, Inc., priority 2006, published 2008).
Read-outs that look alike come from different tables or passages of the source. Each block holds one molecule with its values, some of them ahead of it.

Experiments:
[1] = Plasma levels of Example 6 at Cmax after s.c. dosing of Example 7 in the radio-sensitization studies; assay type: in vivo, nude mice; settings: athymic NCR NUM nude, mouse, sc
recombinant human PARP = recombinant human PARP (Homo sapiens, UniProt P09874); experiment: Measurement of PARP enzymatic activity ([32P]NAD+ transfer to protein acceptor); assay type: biochemical; settings: 100 μM NAD+
Sequence of recombinant human PARP (P09874 whole entry): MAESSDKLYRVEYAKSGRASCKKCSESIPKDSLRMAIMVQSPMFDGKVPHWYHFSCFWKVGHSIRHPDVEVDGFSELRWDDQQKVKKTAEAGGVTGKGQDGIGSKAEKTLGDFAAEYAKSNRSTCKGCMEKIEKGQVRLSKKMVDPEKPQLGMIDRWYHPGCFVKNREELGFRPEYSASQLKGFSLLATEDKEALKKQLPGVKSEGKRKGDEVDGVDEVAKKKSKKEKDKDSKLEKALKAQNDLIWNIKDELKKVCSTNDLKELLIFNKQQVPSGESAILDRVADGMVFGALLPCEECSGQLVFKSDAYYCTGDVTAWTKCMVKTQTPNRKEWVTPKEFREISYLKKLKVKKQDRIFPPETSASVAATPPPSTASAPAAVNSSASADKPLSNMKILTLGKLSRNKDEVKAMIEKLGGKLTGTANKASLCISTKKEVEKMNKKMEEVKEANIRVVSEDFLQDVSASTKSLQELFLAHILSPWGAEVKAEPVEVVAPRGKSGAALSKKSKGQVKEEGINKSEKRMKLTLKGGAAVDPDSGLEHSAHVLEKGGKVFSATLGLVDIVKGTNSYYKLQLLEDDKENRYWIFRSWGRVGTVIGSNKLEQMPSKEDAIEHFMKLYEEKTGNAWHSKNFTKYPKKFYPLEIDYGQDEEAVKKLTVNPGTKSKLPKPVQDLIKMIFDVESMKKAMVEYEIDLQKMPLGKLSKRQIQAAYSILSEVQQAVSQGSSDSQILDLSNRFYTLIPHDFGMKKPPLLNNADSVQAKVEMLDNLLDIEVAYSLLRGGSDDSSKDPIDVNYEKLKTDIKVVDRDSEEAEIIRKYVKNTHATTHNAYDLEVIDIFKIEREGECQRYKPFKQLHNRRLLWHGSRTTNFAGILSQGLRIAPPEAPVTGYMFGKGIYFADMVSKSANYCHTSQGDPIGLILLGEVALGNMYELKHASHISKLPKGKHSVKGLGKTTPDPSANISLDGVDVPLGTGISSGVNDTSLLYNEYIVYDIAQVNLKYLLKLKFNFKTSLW
Procedure: PARP activity was monitored by transfer of radiolabeled ADP-ribose units from [^32P]NAD^+ to a protein acceptor such as histone or PARP itself. The assay mixtures contained 100 mM Tris (pH 8.0), 2 mM DTT, 10 mM MgCl2, 20 ug/ml DNA (nicked by sonication), […] histone H1, 5 ng recombinant human PARP, and inhibitor or DMSO (<2.5% (v/v)) in a final volume of 100 uL. The reactions were initiated by the addition of 100 μM NAD^+ supplemented with 2 uCi [^32P]NAD^+/mL and maintained at room temperature for 12 minutes. Assays were terminated by the addition of […] and the radiolabeled precipitate was collected on a 96-well filter plate (Millipore, MADP NOB 50), washed with 25% TCA. The amount of acid-insoluble radioactivity, corresponding to polyADP-ribosylated protein, was quantitated in a Wallac MicroBeta scintillation counter.
Single-point inhibition data were calculated by comparing PARP, VEGFR2, or MLK3 activity in the presence of inhibitor to activity in the presence of DMSO only. Inhibition curves for compounds were generated by plotting percent inhibition versus log10 of the concentration of compound. IC50 values were calculated by nonlinear regression using the sigmoidal dose-response (variable slope) equation in GraphPad Prism as follows:
y=bottom+(top−bottom)/(1+10^(log IC^50^−x)*Hillslope)
where y is the % activity at a given concentration of compound, x is the logarithm of the concentration of compound, bottom is the % inhibition at the lowest compound concentration tested, and top is the % inhibition at the highest compound concentration examined. The values for bottom and top were fixed at 0 and 100, respectively. IC50 values are reported as the average of at least three separate determinations.
Where no IC50 value is represented, data has yet to be determined.

[2] = tested on: bone marrow and intestinal mucosa; experiment: Bone marrow and jejunal crypt assays for radiation-induced normal tissue toxicity; assay type: in vivo; settings: Example 7 30 and 100 mg/kg dose equivalents of Example 6 sc plus 2 Gy radiation x 5 days
Procedure: To evaluate therapeutic gain, Example 7 (30 and 100 mg/kg dose equivalents of Example 6 sc) plus 2 Gy radiation×5 days was evaluated in bone marrow and jejunal crypt assays to determine if Example 7 potentiated radiation-induced normal tissue (NT) toxicity.

[3] = tested on: U87MG human glioblastoma xenografts; experiment: Initial radio-sensitizing study, non-optimized dosing schedule (7.5 Gy x 3 days, s.c.); assay type: in vivo, nude mice
[4] = tested on: U87MG human glioblastoma xenografts; assay type: in vivo
[5] = tested on: U87MG human glioblastoma xenografts; experiment: Preliminary radio-sensitizing study of orally administered Example 7; assay type: in vivo, nude mice
[6] = Example 7 30 mg/kg s.c. qd x 21 d plus RT 2 Gy x 5 days

- IC50 (recombinant human PARP): < 100 nM
Structure (SMILES): COc1cccc2[nH]c3c4c(c5c(c3c12)C(=O)NC5=O)CCC4 [Example 6, 7-Methoxy-1,2,3,11-tetrahydro-5,11-diaza-benzo[a]trindene-4,6-dione]
- Cmax ([1]; 30 mg/kg, Example 7 30 mg/kg s.c., fractionated RT study, read-out: Plasma levels of Example 6 at Cmax associated with radio-sensitization efficacy): 5.5 µM
- Cmax ([1]; 100 mg/kg, Example 7 100 mg/kg s.c. dose, fractionated RT study, read-out: Plasma levels at Cmax): 21 µM
- Cmax ([1]; 100 mg/kg, at 100 mg/kg Example 7 s.c., initial study (7.5 Gy schedule), read-out: Plasma levels of Example 6 at Cmax associated with efficacy): 23 µM

Structure (SMILES): COc1cccc2[nH]c3c4c(c5c(c3c12)C(=O)N(CN1CCN(C)CC1)C5=O)CCC4 [Example 7, 7-Methoxy-5-(4-methyl-piperazin-1-ylmethyl)-1,2,3,11-tetrahydro-5,11-diaza-benzo[a]trindene-4,6-dione]
- potentiation of radiation-induced normal tissue toxicity [2]: did not potentiate radiation toxicity
- tumor growth delay (TGD) ([3]; Example 7 (100 mg/kg s.c. qd) with 7.5 Gy radiation for 3 days, vs vehicle): 14.8 days
- time for tumors to reach 2000 mm3 ([3]; Example 7 (100 mg/kg s.c. qd) with 7.5 Gy radiation for 3 days, radiation alone 16.1 days): 24.8 days
- effect on tumor growth as a single agent ([3]; Example 7 alone, 100 mg/kg dose equivalents of Example 6, s.c., QD for 5 days): no effect on tumor growth
- time for tumors to reach a tumor volume of 2000 mm3 ([3]; Example 7 only, 100 mg/kg dose equivalents of Example 6, s.c., QD 5 days, vehicle 10.0 days): 9.6 days
- TGD compared to radiation alone ([4]; Example 7 30 mg/kg s.c. qd x 21 d in combination with RT 2 Gy x 5 days): 15 days
- TGD compared to Example 7 alone [4, 6]: 26 days
- fold increase in TGD compared to Example 7 alone [4, 6]: 6 fold
- fold increase in TGD compared to radiation alone [4, 6]: 4 fold
- anti-tumor efficacy ([4]; Example 7 100 mg/kg s.c. with fractionated radiotherapy 2 Gy x 5 days): significant anti-tumor efficacy
- mortality ([4]; Example 7 100 mg/kg s.c. with fractionated radiotherapy, by day 11): 80%
- effect on tumor growth inhibition, Example 7 alone ([4]; Example 7 alone, 30 mg/kg dose equivalents of Example 6 s.c. qd x 21 days): no effect on tumor growth inhibition
- effect on tumor growth ([5]; Example 7 200 mg/kg dose equivalents of Example 6 p.o. qd x 21 d plus RT 2 Gy x 5 d): no effect on tumor growth as compared to RT alone
- effect on tumor growth ([5]; Example 7 300 mg/kg dose equivalents of Example 6 p.o. qd x 21 d plus RT 2 Gy x 5 d): tumor growth stasis starting on day 8 and continuing throughout the study (day 31)
- effect on tumor growth ([5]; Example 7 alone, 200 and 300 mg/kg dose equivalents of Example 6 p.o. qd x 21 d): no effect on tumor growth as compared to RT alone
- radio-sensitizing effect when administered orally ([5]; oral administration): exerts radio-sensitizing effects when administered orally
- IC50 (recombinant human PARP): < 100 nM

- IC50 (recombinant human PARP): < 100 nM
Structure (SMILES): COc1cccc2c1c1c3c(c4c(c1n2CN1CCOCC1)CCC4)C(=O)N(CN1CCOCC1)C3=O [Example 9, 7-Methoxy-5,11-(bis-morpholin-4-ylmethyl)-1,2,3,11-tetrahydro-5,11-diaza-benzo[a]trindene-4,6-dione]

- IC50 (recombinant human PARP): < 100 nM
Structure (SMILES): COc1cccc2[nH]c3c4c(c5c(c3c12)C(=O)N(CN1CCOCC1)C5=O)CCC4 [Example 10, 7-Methoxy-5-(morpholin-4-ylmethyl)-1,2,3,11-tetrahydro-5,11-diaza-benzo[a]trindene-4,6-dione]
